Test results as given in US5578643A, “Protective prostaglandins for use in conjunction with chemotherapeutic agents” (Loyola University of Chicago, priority 1994, dated 1996).

Experiments:
[1] = system: mice given graded doses of doxorubicin (DOX); test: DOX dose response: dose killing 50% of the mice within 15 days, alone or after PG or WR-2721; type: in vivo; conditions: for effect on DOX dose necessary to kill 50% of mice: 10 μg of 16,16-dimethyl PGE2 or 25 μg of SC-44932, 2 hours before graded doses of doxorubicin, n=8, FIG. 6
Experimental: The open triangle is data of a group of 10 mice given WR-2721, 30 minutes before administration of 0.75 mg of doxorubicin. (The lines are computer fit spline curves through the data; n=24 per data point on each curve).
(The lines are computer fit spline curves through the data; n=8 per data point for each of the PG-treated groups and n=24 for the data points of mice treated only with doxorubicin).
It was observed that all acute deaths due to DOX treatment alone occurred before day 15 following DOX administration. Subsequently, the parameter of death within 15 days was used to investigate the DOX dose response administered IP alone or 2 hours after 40 μg of misoprostol was given subcutaneously (sc). In this study, a dose of about 0.5 mg of DOX/average 30 gram mouse, killed 50% of the DOX treated mice (see FIG. 5).
A comparison of PG-induced protection was made to that of protection by WR-2721; an agent reported to protect from some chemotherapeutic agents. […] Two other PGs representing different structural prostaglandins than misoprostol were also investigated for their effectiveness in protecting mice from mortality resulting from administration of graded doses of DOX.

hair medullary cells = test: Number of hair medullary cells four days after a single dose of chemotherapeutic agent, with or without misoprostol; type: in vivo, CF1 mice; conditions: 4 days after single IP dose: DOX 0.3, CTX 1, VP-16-213 0.3, ARA-C 8, HU 10, 5 FU 1.0, Methotrexate 0.2, Bleomycin 0.05, Mitomycin C 0.01, Cisplatin 0.25, Carboplatin 1.0, Taxol 0.6 mg; untreated control 51.4 ± 0.6
Experimental: FIG. 13 is a representation of photographs of shafts of hair showing a single line of medullary cells in control mice (Panel A) and in mice 4 days after they were given a single dose of 0.3 mg of VP-16-213 (Panel B).
Number of Hair Medullary Cells as a Measure of Protection from Injury caused by Chemotherapeutic Agents.
The shafts of hair in CF1 mice contain usually a single line of about 50±1 medullary cells. These cells are very sensitive to cytotoxic agents (see Potten, C. S., Geng, L., and Taylor, P., Hair Medullary Cell Counts: a Simple and Sensitive Indicator of Radiation Exposure. Int. J Radiat. Biol., 57:13-21, 1990). Single doses of cytotoxic chemotherapeutic agents greatly reduce the number of medullary cells which reach a nadir at 4 days after administration of the agent. This cell system has been used for the evaluation of misoprostol-induced protection from several chemotherapeutic agents.
CF1 mice had hair from an area of their rump plucked to induce anagen growth as described in Example 2 above. […] In separate groups, mice received misoprostol (40 μg/average 30 g mouse) either subcutaneously or applied topically 2 hours before each of the chemotherapeutic agents listed above. Untreated controls were used since it has been previously determined that water, or 2% EtOH in water, or phosphate buffer at pH=6.8 (the vehicles for the all agents used) had no influence on the cell counts compared to untreated controls. Twenty-five hairs from each animal of each group were dissected from Feulgen stained samples taken from the mice 4 days after treatment.
The number of medullary cells was averaged (n=4) for each treatment group and the results for all chemotherapeutic agents tested to date are presented in Table I.

[2] = Survival of mice (percent survival over 15 days) after doxorubicin, with or without prior prostaglandin; conditions: mouse, in vivo, ip, 0.5 mg
Experimental: (§1) FIG. 1 is a graph illustrating percent survival of mice over 15 days as a function of the time interval (in hours) between the administration of misoprostol and the subsequent administration of doxorubicin. (The two curves represent duplicate experiments; 12 animals per experiment.)
(§2) FIG. 2 is a graph illustrating the percent survival of mice over 15 days following the administration of 0.5 mg of doxorubicin (open circles) and mice given 40 μg of misoprostol 2 hours before administration of 0.5 mg of doxorubicin (filled circles). (N=16 for each group).
(§3) FIG. 3 is a graph illustrating the percent survival of mice over 15 days following the administration of 0.75 mg of doxorubicin (open circles) and mice given 40 μg of misoprostol 2 hours before administration of 0.75 mg of doxorubicin (filled circles). (N=16 for each group).
(§4) Mortality of mice is a measure of PG-induced protection from death due to severe normal tissue injury inflicted by chemotherapy agents.
(§5) This assay was accomplished by injecting intraperitoneally (IP) separate groups of mice with a range of doses of chemotherapeutic agents. […] In some groups of mice, longevity was recorded by plotting the number of animals remaining alive (percent survival) versus time following the administration of the chemotherapeutic agent.
(§6) PG-induced protection from the toxic chemotherapeutic agents was measured by subcutaneous (SC) injection of the PG at various times prior to or after the IP administration of the chemotherapeutic agent. […] The time interval was varied from 15 minutes to 5 hours. The two curves represent two separate experiments with 20 mice in each experiment. The "0" time point is the percentage of mice that survived 15 days after administration of doxorubicin alone.

[3] = system: mice given doxorubicin (DOX); test: as above; conditions: 0.75 mg of DOX IP alone; n=16; FIG. 3
Experimental: as §1, §2, §3, §4, §5, §6

[4] = system: white blood cells (WBCs) in the peripheral circulation; test: WBC counts and differential counts in peripheral blood of DOX treated mice; type: in vivo
Experimental: FIG. 7 is a graph illustrating the protective effect of misoprostol (given 2 hours before doxorubicin) on WBC counts compared to the effect of doxorubicin alone on WBC counts as function of time (in days). (The numbers 1 and 2 are duplicate studies.)
Death within 15 days of DOX treatment alone is most likely associated with bone marrow injury. […] DOX, therefore, appears to not only reduce the total WBC, but has a particularly marked effect on lymphocytes.

hair follicles = test: Hair count / hair loss (alopecia) caused by chemotherapeutic agents, 5 daily treatments; type: in vivo, mice; conditions: 0.1 mg DOX daily for 5 days IP; controls 248±5; FIG. 9
Experimental: Panel C is a representation of a photomicrograph of an animal given 40 μg of misoprostol, 2 hours before the 0.1 mg daily dose of doxorubicin given each day for 5 days.
(Data are the means of 6 mice (2 fields/mouse)±1 SEM.)
Amount of Hair Loss as a Measure of PG-induced Protection from Alopecia caused by Chemotherapeutic Agents.
One of the side effects of chemotherapy in cancer patients is hair loss or alopecia. Studies were conducted to measure a possible protective effect of PGs from alopecia caused by chemotherapeutic agents. […] The hairs on the rumps of mice (n=4/group) were plucked to induce a growth or anagen cycle within hair follicles which continues for about 18 days. […] Control groups (n=4) received no treatment or misoprostol alone.

skin (hair follicles) = test: Hair count after a single dose of doxorubicin, with or without PGE1; type: in vivo, mice; conditions: FIG. 11
Experimental: FIG. 11 is a graph illustrating the number of hairs per 4.16 sq. mm of skin area in control mice, in mice that received 0.5 mg of doxorubicin or in mice that received 10 μg of PGE1 2 hours before receiving 0.5 mg of doxorubicin. (Data are the means of 6 mice (2 field/mouse)±SEM.)
(§7) The hair counts from skin fields of control (open bar), DOX (striped bar) and misoprostol+DOX (filled bar) treated mice are shown in FIG. 9. […] Misoprostol given before DOX increased the hair count to 213±7.8. […] Since prostaglandin receptors are not evenly distributed, protection may not be evenly distributed. PGE1 is associated with the skin (hair follicles) but not with the gut. The ability of PGE1 to protect the skin (hair follicles) and the small intestine from cell injury caused by doxorubicin was tested. […] A single dose of 0.5 mg of doxorubicin reduced this count to 43±8. Administration of 10 μg of PGE1 prior to administration of doxorubicin provided protection as indicated by the increase in the number of hairs to 111±12. […] More evidence is presented in Example 3.

small intestine = test: Intestinal microcolonies in DOX treated mice, with or without PGE1; type: in vivo; conditions: FIG. 12
Text: (Data are the means of 4 mice±1 SEM.)
as §7

kidney = conditions: bolus infusions of cisplatin; Glover et al.; cited from earlier work
humans = conditions: WR-2721 in large protective doses; cited from earlier work

C/C=C/C=C/[C@](C)(O)C/C=C/C1C(O)CC(=O)C1CC/C=C\CCC(=O)OC (mixture of isomers) [SC-44932, (±) methyl, 7-[3α-hydroxy-2β-(4R-hydroxy-4-methyl-1E, 5E,7E-nonatrienyl)-5-oxo-1α-cyclopentyl]-4-Z-heptenoate]
effect on DOX dose necessary to kill 50% of mice [1]: increased the DOX dose necessary to kill 50% of a population (n=8) of mice

CCCCC(C)(C)[C@H](O)/C=C/[C@H]1[C@H](O)CC(=O)[C@@H]1C/C=C\CCCC(=O)O [16,16-dimethyl PGE2, 16,16-dimethyl prostaglandin E2]
effect on DOX dose necessary to kill 50% of mice [1]: increased the DOX dose necessary to kill 50% of a population (n=8) of mice

O=P1(N(CCCl)CCCl)NCCCO1 (stereo not drawn) [CTX, cytoxan]
Number of Medullar Cells ± 1 SEM, chemotherapeutic agent IP alone (hair medullary cells): 22.1 ± 1.9

N.N.O=C([O-])C1(C(=O)[O-])CCC1.[Pt+2] [Carboplatin, carboplatin]
Number of Medullar Cells ± 1 SEM, chemotherapeutic agent IP alone (hair medullary cells): 37.8 ± 2.4

N.N.[Cl][Pt][Cl] [Cisplatin, cisplatin]
Number of Medullar Cells ± 1 SEM, chemotherapeutic agent IP alone (hair medullary cells): 25.9 ± 1.5

COc1cccc2c1C(=O)c1c(O)c3c(c(O)c1C2=O)C[C@@](O)(C(=O)CO)C[C@@H]3O[C@H]1C[C@H](N)[C@H](O)[C@H](C)O1 [DOX, doxorubicin]
survival at 360 h [2]: ~25% | mortality, DOX alone [3]: All of the mice were dead by six days | dose of DOX that killed 50% of the mice, DOX alone ([1]; IP, death within 15 days, FIG. 5): about 0.5 mg of DOX/average 30 gram mouse | time of all acute deaths due to DOX treatment alone (before day) ([1]; following DOX administration): < 15 days | WBCs in the peripheral circulation, DOX alone ([4]; 0.5 mg DOX/30 gram mouse, FIG. 7): sharply reduced over 7 days following treatment | percentage of lymphocytes, DOX alone ([4]; 0.5 mg of DOX, differential counts, control mice about 85%): less than 10% | number of hairs, DOX alone (hair follicles): 144±3 hairs per 4.42 sq. mm | number of hairs, doxorubicin alone (skin (hair follicles); single dose of 0.5 mg doxorubicin, control 237±5): 43±8 hairs per 4.16 sq. mm | number of intestinal colonies per circumference, DOX alone (small intestine; 0.5 mg of doxorubicin): 6±0.3 intestinal colonies per circumference | Number of Medullar Cells ± 1 SEM, chemotherapeutic agent IP alone (hair medullary cells): 18.3 ± 1.7

CCCCC[C@H](O)/C=C/[C@H]1[C@H](O)CC(=O)[C@@H]1CCCCCCC(=O)O [PGE1]
number of hairs, PGE1 + doxorubicin (skin (hair follicles); 10 μg of PGE1 2 hours before 0.5 mg doxorubicin): 111±12 hairs per 4.16 sq. mm | number of intestinal colonies per circumference, PGE1 + DOX (small intestine; 10 μg of PGE1 (b62 prints .rho.g) 2 hours before 0.5 mg doxorubicin): did not change

NCCCNCCSP(=O)(O)O [WR-2721, S-2-(3-aminopropylamino) ethylphosphorothioxic acid]
protection of mice from DOX by WR-2721 ([1]; WR-2721 30 minutes before 0.75 mg of doxorubicin, n=10, FIG. 5): did not protect mice (n=10) from DOX treatment | kidney protection from cisplatin injury (kidney): protect the kidney from injury caused by bolus infusions of cisplatin | side effects in humans (humans): causes hypotension, nausea, and vomiting in humans

bleomycin
Number of Medullar Cells ± 1 SEM, chemotherapeutic agent IP alone (hair medullary cells): 30.4 ± 1.4
